Patent US10087229B2, “Peptide compound” (TAKEDA PHARMACEUTICAL COMPANY LIMITED, priority 2013, dated 2018)
Square brackets hold non-standard residues; d marks the D form. Peptide text beside a SMILES is read from it. αMeF = C[C@](N)(Cc1ccccc1)C(=O)O; Cha = N[C@@H](CC1CCCCC1)C(=O)O; Aib = CC(C)(N)C(=O)O

system: male C57BL/6J mouse; experiment: 2-days continuous subcutaneous administration test (feeding suppressive activity); type: in vivo; details: 10 nmol/kg/day, subcutaneous Alzet pump, 2-days cumulative food consumption, control (solvent alone) = 0%
Procedure: 2-Days Continuous Subcutaneous Administration Test
The feeding suppressive activity of a test compound was examined by the method described below.
The test compound was dissolved in a solvent (50% DMSO) so that sustained release would occur at 10 nmol/kg/day, and the solution was filled in the Alzet Pump (DURECT Corporation, model: 1003D). The pump thus filled with the solution to be administered was immersed in physiological saline for priming, and then used. The pump was embedded by the following method. Each male C57BL/6J mouse at 8-9 weeks of age (20-26° C., allowed to take food and water ad libitum; 12-hour bright-12-hour dark cycle) was anesthetized; the skin in the upper back thereof was incised, and the above-mentioned pump was embedded subcutaneously; the incision was sutured. After weighing, this mouse was returned to the rearing cage (reared alone), and given previously weighed food; food consumption as of 2 days after the start of administration was measured. The food consumption was calculated by subtracting the amount of remaining food from the weight of the food given on the day of the start of administration. When the food consumption of a control group receiving administration of the solvent alone was regarded as a suppression rate of 0%, the feeding suppressive activity of each test compound was evaluated on the basis of 2-days cumulative food consumption after the start of administration. The food intake suppression rate (%) of the test compound was defined as (Food consumption of the control group−Food consumption of the test compound-administered group)/Food consumption of the control group×100.

| Structure (SMILES) | Food intake suppression (%) |
| --- | --- |
| CC(C)C[C@H](NC(=O)[C@H](CC(C)C)NC(=O)[C@H](Cc1c[nH]c2ccccc12)NC(=O)[C@H](CCCCN)NC(=O)[C@@H](NC(=O)[C@H](Cc1ccccc1)NC(=O)[C@H](CCC(=O)O)NC(=O)[C@H](C)NC(=O)[C@H](CCC(N)=O)NC(=O)[C@H](C)NC(=O)[C@H](CCC(N)=O)NC(=O)[C@H](CCCCN)NC(=O)[C@H](CC(=O)O)NC(=O)[C@H](CC(C)C)NC(=O)[C@H](CC1CCCCC1)NC(=O)[C@H](CCCCN)NC(=O)C(C)(C)NC(=O)[C@H](Cc1ccc(O)cc1)NC(=O)[C@H](CC(=O)O)NC(=O)[C@H](CO)NC(=O)[C@@H](NC(=O)[C@](C)(Cc1ccccc1)NC(=O)[C@@H](NC(=O)CNC(=O)[C@H](CCC(=O)O)NC(=O)C(C)(C)NC(=O)[C@@H](N)Cc1ccc(O)cc1)[C@@H](C)O)[C@@H](C)O)C(C)C)C(=O)N[C@@H](CCCCN)C(=O)NCC(=O)NCC(=O)N1CCC[C@H]1C(=O)N[C@@H](CO)C(=O)N[C@@H](CO)C(=O)NCC(=O)N[C@@H](C)C(=O)N1CCC[C@H]1C(=O)N1CCC[C@H]1C(=O)N1CCC[C@H]1C(=O)N[C@@H](CO)C(=O)N[C@@H](CCCCN)C(N)=O [Example 16] (H-Y[Aib]EGT[αMeF]TSDY[Aib]K[Cha]LDKQAQAEFVKWLLKGGPSSGAPPPSK-NH2) | 54.24 |
| CC[C@H](C)[C@H](NC(=O)C(C)(C)NC(=O)[C@H](Cc1ccc(O)cc1)NC(=O)[C@H](CC(=O)O)NC(=O)[C@H](CO)NC(=O)[C@@H](NC(=O)[C@](C)(Cc1ccccc1)NC(=O)[C@@H](NC(=O)CNC(=O)[C@H](CCC(=O)O)NC(=O)C(C)(C)NC(=O)[C@@H](N)Cc1ccc(O)cc1)[C@@H](C)O)[C@@H](C)O)C(=O)N[C@@H](CC1CCCCC1)C(=O)N[C@@H](CC(C)C)C(=O)N[C@@H](CC(=O)O)C(=O)N[C@@H](CCCCN)C(=O)N[C@@H](CCC(N)=O)C(=O)N[C@@H](C)C(=O)N[C@@H](CCC(N)=O)C(=O)N[C@@H](C)C(=O)N[C@@H](CCC(=O)O)C(=O)N[C@@H](Cc1ccccc1)C(=O)N[C@H](C(=O)N[C@@H](CCCCN)C(=O)N[C@@H](Cc1c[nH]c2ccccc12)C(=O)N[C@@H](CC(C)C)C(=O)N[C@@H](CC(C)C)C(=O)N[C@@H](CCCCN)C(=O)NCC(=O)NCC(=O)N1CCC[C@H]1C(=O)N[C@@H](CO)C(=O)N[C@@H](CO)C(=O)NCC(=O)N[C@@H](C)C(=O)N1CCC[C@H]1C(=O)N1CCC[C@H]1C(=O)N1CCC[C@H]1C(=O)N[C@@H](CO)C(=O)N[C@@H](CCCCN)C(N)=O)C(C)C [Example 14] (H-Y[Aib]EGT[αMeF]TSDY[Aib]I[Cha]LDKQAQAEFVKWLLKGGPSSGAPPPSK-NH2) | 47.47 |
| CC[C@H](C)[C@H](NC(=O)[C@H](C)NC(=O)[C@H](Cc1ccc(O)cc1)NC(=O)[C@H](CC(=O)O)NC(=O)[C@H](CO)NC(=O)[C@@H](NC(=O)[C@](C)(Cc1ccccc1)NC(=O)[C@@H](NC(=O)CNC(=O)[C@H](CCC(=O)O)NC(=O)C(C)(C)NC(=O)[C@@H](N)Cc1ccc(O)cc1)[C@@H](C)O)[C@@H](C)O)C(=O)NC(C)(C)C(=O)N[C@@H](CC(C)C)C(=O)N[C@@H](CC(=O)O)C(=O)N[C@@H](CCCCN)C(=O)N[C@@H](CCC(N)=O)C(=O)N[C@@H](C)C(=O)N[C@@H](CCC(N)=O)C(=O)N[C@@H](C)C(=O)N[C@@H](CCC(=O)O)C(=O)N[C@@H](Cc1ccccc1)C(=O)N[C@H](C(=O)N[C@@H](CCCCN)C(=O)N[C@@H](Cc1c[nH]c2ccccc12)C(=O)N[C@@H](CC(C)C)C(=O)N[C@@H](CC(C)C)C(=O)N[C@@H](CCCCN)C(=O)NCC(=O)NCC(=O)N1CCC[C@H]1C(=O)N[C@@H](CO)C(=O)N[C@@H](CO)C(=O)NCC(=O)N[C@@H](C)C(=O)N1CCC[C@H]1C(=O)N1CCC[C@H]1C(=O)N1CCC[C@H]1C(=O)N[C@@H](CO)C(=O)N[C@@H](CCCCN)C(N)=O)C(C)C [Example 1] (H-Y[Aib]EGT[αMeF]TSDYAI[Aib]LDKQAQAEFVKWLLKGGPSSGAPPPSK-NH2) | 42.68 |
| CC(C)C[C@H](NC(=O)[C@H](CC(C)C)NC(=O)[C@H](Cc1c[nH]c2ccccc12)NC(=O)[C@H](CCCCN)NC(=O)[C@@H](NC(=O)[C@H](Cc1ccccc1)NC(=O)[C@H](CCC(=O)O)NC(=O)[C@H](C)NC(=O)[C@H](CCC(N)=O)NC(=O)[C@H](C)NC(=O)[C@H](CCC(N)=O)NC(=O)[C@H](CCCCN)NC(=O)[C@H](CC(=O)O)NC(=O)[C@H](CC(C)C)NC(=O)C(C)(C)NC(=O)[C@H](Cc1ccccc1)NC(=O)C(C)(C)NC(=O)[C@H](Cc1ccc(O)cc1)NC(=O)[C@H](CC(=O)O)NC(=O)[C@H](CO)NC(=O)[C@@H](NC(=O)[C@](C)(Cc1ccccc1)NC(=O)[C@@H](NC(=O)CNC(=O)[C@H](CCC(=O)O)NC(=O)C(C)(C)NC(=O)[C@@H](N)Cc1ccc(O)cc1)[C@@H](C)O)[C@@H](C)O)C(C)C)C(=O)N[C@@H](CCCCN)C(=O)NCC(=O)NCC(=O)N1CCC[C@H]1C(=O)N[C@@H](CO)C(=O)N[C@@H](CO)C(=O)NCC(=O)N[C@@H](C)C(=O)N1CCC[C@H]1C(=O)N1CCC[C@H]1C(=O)N1CCC[C@H]1C(=O)N[C@@H](CO)C(=O)N[C@@H](CCCCN)C(N)=O [Example 11] (H-Y[Aib]EGT[αMeF]TSDY[Aib]F[Aib]LDKQAQAEFVKWLLKGGPSSGAPPPSK-NH2) | 49.99 |
| CC[C@H](C)[C@H](NC(=O)C(C)(C)NC(=O)[C@H](Cc1ccc(O)cc1)NC(=O)[C@H](CC(=O)O)NC(=O)[C@H](CO)NC(=O)[C@@H](NC(=O)[C@](C)(Cc1ccccc1)NC(=O)[C@@H](NC(=O)CNC(=O)[C@H](CCC(=O)O)NC(=O)C(C)(C)NC(=O)[C@@H](N)Cc1ccc(O)cc1)[C@@H](C)O)[C@@H](C)O)C(=O)NC(C)(C)C(=O)N[C@@H](CC(C)C)C(=O)N[C@@H](CC(=O)O)C(=O)N[C@@H](CCCCN)C(=O)N[C@@H](CCC(N)=O)C(=O)N[C@@H](C)C(=O)N[C@@H](CCC(N)=O)C(=O)N[C@@H](CO)C(=O)N[C@@H](CCC(=O)O)C(=O)N[C@@H](Cc1ccccc1)C(=O)N[C@H](C(=O)N[C@@H](CCCCN)C(=O)N[C@@H](Cc1c[nH]c2ccccc12)C(=O)N[C@@H](CC(C)C)C(=O)N[C@@H](CC(C)C)C(=O)N[C@@H](CCCCN)C(=O)NCC(=O)NCC(=O)N1CCC[C@H]1C(=O)N[C@@H](CO)C(=O)N[C@@H](CO)C(=O)NCC(=O)N[C@@H](C)C(=O)N1CCC[C@H]1C(=O)N1CCC[C@H]1C(=O)N1CCC[C@H]1C(=O)N[C@@H](CO)C(=O)N[C@@H](CCCCN)C(N)=O)C(C)C [Example 4] (H-Y[Aib]EGT[αMeF]TSDY[Aib]I[Aib]LDKQAQSEFVKWLLKGGPSSGAPPPSK-NH2) | 57.01 |
| CC(C)C[C@H](NC(=O)[C@H](CC(C)C)NC(=O)[C@H](Cc1c[nH]c2ccccc12)NC(=O)[C@H](CCCCN)NC(=O)[C@@H](NC(=O)[C@H](Cc1ccccc1)NC(=O)[C@H](CCC(=O)O)NC(=O)[C@H](C)NC(=O)[C@H](CCC(N)=O)NC(=O)[C@H](C)NC(=O)[C@H](CCC(N)=O)NC(=O)[C@H](CCCCN)NC(=O)[C@H](CC(=O)O)NC(=O)[C@H](CC(C)C)NC(=O)C(C)(C)NC(=O)[C@H](CCCCN)NC(=O)C(C)(C)NC(=O)[C@H](Cc1ccc(O)cc1)NC(=O)[C@H](CC(=O)O)NC(=O)[C@H](CO)NC(=O)[C@@H](NC(=O)[C@](C)(Cc1ccccc1)NC(=O)[C@@H](NC(=O)CNC(=O)[C@H](CCC(=O)O)NC(=O)C(C)(C)NC(=O)[C@@H](N)Cc1ccc(O)cc1)[C@@H](C)O)[C@@H](C)O)C(C)C)C(=O)N[C@@H](CCCCN)C(=O)NCC(=O)NCC(=O)N1CCC[C@H]1C(=O)N[C@@H](CO)C(=O)N[C@@H](CO)C(=O)NCC(=O)N[C@@H](C)C(=O)N1CCC[C@H]1C(=O)N1CCC[C@H]1C(=O)N1CCC[C@H]1C(=O)N[C@@H](CO)C(=O)N[C@@H](CCCCN)C(N)=O [Example 9] (H-Y[Aib]EGT[αMeF]TSDY[Aib]K[Aib]LDKQAQAEFVKWLLKGGPSSGAPPPSK-NH2) | 45.23 |
| CC[C@H](C)[C@H](NC(=O)C(C)(C)NC(=O)[C@H](Cc1ccc(O)cc1)NC(=O)[C@H](CC(=O)O)NC(=O)[C@H](CO)NC(=O)[C@@H](NC(=O)[C@](C)(Cc1ccccc1)NC(=O)[C@@H](NC(=O)CNC(=O)[C@H](CCC(=O)O)NC(=O)C(C)(C)NC(=O)[C@@H](N)Cc1ccc(O)cc1)[C@@H](C)O)[C@@H](C)O)C(=O)NC(C)(C)C(=O)N[C@@H](CC(C)C)C(=O)N[C@@H](CC(=O)O)C(=O)N[C@@H](CCCCN)C(=O)N[C@@H](CCC(N)=O)C(=O)N[C@@H](C)C(=O)N[C@@H](CCC(N)=O)C(=O)N[C@@H](C)C(=O)N[C@@H](CCC(=O)O)C(=O)N[C@@H](Cc1ccccc1)C(=O)N[C@H](C(=O)N[C@@H](CCCCN)C(=O)N[C@@H](Cc1c[nH]c2ccccc12)C(=O)N[C@@H](CC(C)C)C(=O)N[C@@H](CC(C)C)C(=O)N[C@@H](CCCCN)C(=O)NCC(=O)NCC(=O)N1CCC[C@H]1C(=O)N[C@@H](CO)C(=O)N[C@@H](CO)C(=O)NCC(=O)N[C@@H](C)C(=O)N1CCC[C@H]1C(=O)N1CCC[C@H]1C(=O)N1CCC[C@H]1C(=O)N[C@@H](CO)C(N)=O)C(C)C [Example 6] (H-Y[Aib]EGT[αMeF]TSDY[Aib]I[Aib]LDKQAQAEFVKWLLKGGPSSGAPPPS-NH2) | 65.20 |
